The values below come from ChEMBL document CHEMBL1142844, “A chemical strategy to promote helical peptide-protein interactions involved in apoptosis” (Bioorg Med Chem Lett, 2005).

The target in the first assay is Apoptosis regulator Bcl-2 (Homo sapiens, UniProt P10415). The assay can be described thus: Inhibition of BCL2 by fluorescence polarization based competitive binding assay.
Apoptosis regulator Bcl-2, sequence (P10415 whole entry): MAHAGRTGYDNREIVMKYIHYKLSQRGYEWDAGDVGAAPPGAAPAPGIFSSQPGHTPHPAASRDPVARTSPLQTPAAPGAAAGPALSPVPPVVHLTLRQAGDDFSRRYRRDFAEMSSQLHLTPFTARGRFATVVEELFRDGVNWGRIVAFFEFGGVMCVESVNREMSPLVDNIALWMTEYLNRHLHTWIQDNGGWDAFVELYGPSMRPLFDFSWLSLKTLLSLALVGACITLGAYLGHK
Settings: not given; call rule not given here
Take H-QRYGRELRRMSDEFEG-OH: the concentration for half-maximal inhibition (IC50) – broadly, the concentration that gives 50% inhibition – is “Not Active”.

The same assay, now with this note: read-out: IC50.
Consider `CC[C@H](C)[C@H](NC(=O)[C@H](CC(N)=O)NC(=O)[C@H](CCCN=C(N)N)NC(=O)[C@@H](NC(=O)[C@@H](NC(=O)[C@H](CC(=O)O)NC(=O)[C@H](CCC(=O)O)NC(=O)[C@@H](N)CCC(N)=O)[C@@H](C)CC)[C@@H](C)CC)C(=O)N[C@@H](C)C(=O)N[C@@H](CCCN=C(N)N)C(=O)N[C@@H](Cc1c[nH]cn1)C(=O)N[C@@H](CC(C)C)C(=O)N[C@@H](C)C(=O)N[C@@H](CCC(N)=O)C(=O)N[C@H](C(=O)NCC(=O)N[C@@H](CC(=O)O)C(=O)N[C@@H](CO)C(=O)N[C@@H](CCSC)C(=O)N[C@@H](CC(=O)O)C(=O)N[C@@H](CCCN=C(N)N)C(=O)N[C@@H](CO)C(=O)N[C@H](C(=O)N1CCC[C@H]1C(=O)N1CCC[C@H]1C(=O)NCC(=O)O)[C@@H](C)CC)C(C)C`, for which the IC50 is 14100 nM.
Turning to H-KKLSECLKRIGDELDS-OH, the IC50 stood at 29100 nM.
With H-NLAAAQRYGRELRRMSDEFEGSFKGL-OH, the IC50 was 410 nM.
With H-NLWAAGQVGRQLAIIGDDINRSFKGL-OH, the IC50 was 650 nM.
Still for that read-out and setting: the value for H-NLWAAKKLSECLKRIGDELDSSFKGL-OH was 1330 nM; that for H-NLWAAQRYGRELRRMSDEFEG-OH was 5600 nM; that for H-NLWAAQRYGRELRRMSDEFEGAFKGL-OH was 800 nM.
On the same count and under the same terms, the value for H-NLWAAQRYGRELRRMSDEFEGSAKGL-OH was 1360 nM.
Regarding H-NLWAAQRYGRELRRMSDEFEGSFKGL-OH, the IC50 amounted to 300 nM.
H-NLWAARNIARHLAQVGDSMDRSFKGL-OH: the IC50 was found to be 1560 nM.
For the compound H-NRWAAQRYGRELRRMSDEFEGSFKGL-OH, the IC50 amounted to 490 nM.
Turning to H-PSSTMGQVGRQLAIIGDDINRRYDSE-OH, the IC50 was found to be 3030 nM.
Turning to H-QDASTKKLSECLKRIGDELDSNMELQ-OH, the IC50 came out at 2880 nM.
On to H-QRYGRELRRMSDEFEGSFKGL-OH, for which the IC50 turned out to be 17500 nM.
In the case of H-RNIARHLAQVGDSMDR-OH, the IC50 worked out at 22300 nM.
